One compound from patent publication US9128088B2 (priority 2008, dated 2015) can be followed below.

What all share (assay): microbe, parasite or virus in culture
The test system of one experiment is M. tuberculosis H37Rv. It counts as cell-based. The conditions noted are these: Mycobacterium tuberculosis.
A further experiment has as its system M. bovis BCG. It counts as cell-based. The following applies: Mycobacterium tuberculosis variant bovis BCG.
Another experiment relates to M. smegmatis mc^2155. It counts as cell-based, Mycobacterium smegmatis. The following applies: Mycolicibacterium smegmatis.

Structures are written as SMILES. In brackets after ≈: the same amount, converted by molar mass.

Take `NNC(=O)c1ccncc1` [Isoniazid, isoniazid]: the MIC worked out at 0.05 µg/mL (≈ 0.365 µM) in the experiment on M. tuberculosis H37Rv, 0.05 µg/mL (≈ 0.365 µM) in the experiment with M. bovis BCG and 16 µg/mL (≈ 117 µM) in the experiment with M. smegmatis mc^2155.
